Measurements: ChEMBL document CHEMBL1201862, “PubChem BioAssay data set” (2004)
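All cell lines were grown in 96-well plates and treated with compound for 48 hours. The concentration for 50% growth inhibition is given as GI50.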 The source made the active and inactive calls. Cut-off read from the data, not from the text of the source: active = GI50 up to about 1.1 µM and inactive = higher.

Legend:
Assay in all cases: inhibition of tumour cell growth, NCI panel, 48 h
[1] = system: BT-549
[2] = system: HOP-92
[3] = system: HT-29
[4] = system: Hs-578T
[5] = system: K562
[6] = system: KM12
[7] = system: MDA-MB-435
[8] = system: MOLT-4
[9] = system: OVCAR-4
[10] = system: OVCAR-8
[11] = system: PC-3
[12] = system: SF-268
[13] = system: SK-MEL-2
[14] = system: SK-MEL-5
[15] = system: SNB-19
[16] = system: SNB-75
[17] = system: SR
[18] = system: SW-620
[19] = system: TK-10
[20] = system: UACC-257

Measured: GI50

O=C(O)c1cc(C(=O)O)nc(C(=O)O)c1
inactive: [1] > 100 µM | [2] > 100 µM | [3] > 100 µM | [4] > 100 µM | [5] > 100 µM | [6] > 100 µM | [7] > 100 µM | [8] > 100 µM | [9] > 100 µM | [10] > 100 µM | [11] > 100 µM | [12] > 100 µM | [13] > 100 µM | [14] > 100 µM | [15] > 100 µM | [16] > 100 µM | [17] > 100 µM | [18] > 100 µM | [19] > 100 µM | [20] > 100 µM

CC[P+](c1ccccc1)(N(C)C)N(C)C
inactive: [1] > 100 µM | [2] 38.9 µM | [3] > 100 µM | [4] > 100 µM | [5] > 100 µM | [6] > 100 µM | [7] > 100 µM | [8] > 100 µM | [9] > 100 µM | [10] > 100 µM | [11] 60.5 µM | [12] 95.1 µM | [13] > 100 µM | [14] 54.5 µM | [15] > 100 µM | [16] > 100 µM | [17] > 100 µM | [18] > 100 µM | [19] > 100 µM | [20] > 100 µM

CC(C)C1OC(/C=C/c2ccccc2)OCC1(C)C (centres undefined)
inactive: [1] 36.1 µM | [2] 17.9 µM | [3] 27.7 µM | [4] 22.8 µM | [5] 25.4 µM | [6] 31 µM | [7] 33.7 µM | [9] 33.6 µM | [10] 31.6 µM | [11] 37.1 µM | [12] 33 µM | [13] 18.2 µM | [14] 17.7 µM | [15] 41.4 µM | [16] 26.9 µM | [17] 30.1 µM | [18] 30.7 µM | [19] 35.1 µM | [20] 24.8 µM

CN(C)c1ccc2nc3c(C(=O)O)cc(O)c(O)c3[o+]c2c1
inactive: [1] 20.9 µM | [2] 67 µM | [3] 38.5 µM | [4] 68.4 µM | [5] 22.4 µM | [6] 26.9 µM | [7] 21.2 µM | [8] 14.4 µM | [9] 29 µM | [10] 41 µM | [11] 36.5 µM | [12] 41.5 µM | [13] 16.3 µM | [14] 15.3 µM | [15] 28.7 µM | [16] 21.5 µM | [17] 17.5 µM | [18] 31 µM | [19] 21.8 µM | [20] 14.8 µM

Cc1c(C=C(C#N)C#N)c(=O)n(C)c(=O)n1C
inactive: [1] > 100 µM | [2] > 100 µM | [3] > 100 µM | [4] > 100 µM | [5] > 100 µM | [6] > 100 µM | [7] > 100 µM | [8] 95.3 µM | [9] > 100 µM | [10] > 100 µM | [11] > 100 µM | [12] > 100 µM | [13] > 100 µM | [14] > 100 µM | [15] > 100 µM | [16] > 100 µM | [17] 32.9 µM | [18] > 100 µM | [19] > 100 µM | [20] > 100 µM

CN1CCC23c4c5ccc(O)c4OC2c2[nH]c4ccccc4c2CC3(O)C1C5 (centres undefined)
inactive: [1] 45.1 µM | [2] 16.3 µM | [3] 31.9 µM | [4] 24.2 µM | [5] 14 µM | [6] 51.2 µM | [7] 18.2 µM | [8] 18.6 µM | [9] 38.5 µM | [10] 54.8 µM | [11] 41.6 µM | [12] 32.1 µM | [13] 20.6 µM | [14] 13.5 µM | [15] 65.5 µM | [16] 36.7 µM | [17] 26.6 µM | [18] 22.4 µM | [19] 18.9 µM | [20] 18.5 µM

CCOC(=O)Nc1sc2c(c1C#N)CC(C)CC2 (centres undefined)
inactive: [1] 19.7 µM | [2] 25.4 µM | [3] 3.06 µM | [4] 8.59 µM | [5] 2.38 µM | [6] 3.9 µM | [7] 1.32 µM | [8] 4.9 µM | [9] 18.7 µM | [10] 8.75 µM | [11] 5.35 µM | [12] 10.7 µM | [13] 2.16 µM | [14] 4.8 µM | [15] 3.16 µM | [16] 2.82 µM | [17] 1.4 µM | [18] 4.74 µM | [19] 6.62 µM | [20] 11 µM

Cn1c2ccccc2c(=O)c2c(O)cc3c(c21)C=CC1(CCCC1)O3
inactive: [1] > 100 µM | [2] 25.7 µM | [3] 2.67 µM | [4] 95.7 µM | [5] 3.51 µM | [6] > 100 µM | [7] > 100 µM | [8] > 100 µM | [9] 41.7 µM | [10] > 100 µM | [11] > 100 µM | [12] > 100 µM | [13] > 100 µM | [14] > 100 µM | [15] > 100 µM | [16] > 100 µM | [17] 37.3 µM | [18] > 100 µM | [19] > 100 µM | [20] > 100 µM

O=S(=O)(O)c1ccc2c(/N=N/c3cccc4ccccc34)c(O)ccc2c1
inactive: [1] > 100 µM | [2] > 100 µM | [3] > 100 µM | [4] > 100 µM | [5] > 100 µM | [6] > 100 µM | [7] > 100 µM | [8] > 100 µM | [9] > 100 µM | [10] > 100 µM | [11] > 100 µM | [12] > 100 µM | [13] > 100 µM | [14] > 100 µM | [15] 74.6 µM | [16] > 100 µM | [17] > 100 µM | [18] > 100 µM | [19] > 100 µM | [20] > 100 µM

CN(C)CCCc1c[nH]c2ccccc12
inactive: [1] > 100 µM | [2] > 100 µM | [3] > 100 µM | [4] > 100 µM | [5] > 100 µM | [6] > 100 µM | [7] > 100 µM | [8] > 100 µM | [9] > 100 µM | [10] > 100 µM | [11] > 100 µM | [12] > 100 µM | [13] > 100 µM | [14] > 100 µM | [15] > 100 µM | [16] > 100 µM | [17] > 100 µM | [18] > 100 µM | [19] > 100 µM | [20] > 100 µM
